Patent US20250204555A1, “FEED AND METHODS FOR CONTROLLING INTESTINAL TRACT PARASITIC WORM INFECTIONS IN MAMMALS” (In the Bowl Animal Health, priority 2022, published 2025)

Tests used:
Assay type in all cases: in vivo
Ancylostoma caninum = assay: Efficacy of monepantel per os to dogs against Ancylostoma caninum (fecal egg counts); conditions: oral liquid formulation, 0.25 or 0.5 mg/kg daily Days 0-22, ~300 A. caninum larvae on Day 0, expected within approximately 2 weeks
Excerpt: Efficacy of Monepantel Administered per os, i.e. by Mouth, to Dogs for the Treatment and Control of Ancylostoma caninum. Methods: A pool of 12 dogs are to be preliminarily examined to ensure suitability for the example. Dogs must be within normal weight ranges for breed, in good health with no known history of serious disease and neither pregnant nor lactating. Between Day-7 and Day-3, a fecal examination may be performed to confirm the absence of pre-existing infection by any nematode species. Dogs exposed to an anthelmintic within 30 days prior to Day-7 are to be excluded. Dogs are to be weighed on Day-2 and randomly assigned to 1 of 3 groups by weight (1 control group and 2 treatment groups). Dogs may be pair housed, if compatible, or individually housed until allocation to treatment groups on Day 0. Thereafter, the dogs are to be housed individually. Dogs are to be fed a standard commercially available dog food at the recommended rates and should be allowed access to potable water ad libitum. Each dog in a treatment group (test groups 2-3) is to receive by mouth a liquid formulation of monepantel. The dosage is to be administered to the dogs on each of days 0-22 according to test groups, see TABLE 3. [table] Dogs in the control group are not to receive any anthelmintics or any other worm control treatment. Dogs are to be fasted overnight. […]

Toxocara canis [1] = assay: Efficacy of monepantel per os to dogs against Toxocara canis (fecal egg counts); conditions: oral liquid formulation, 0.125, 0.25 or 0.5 mg/kg daily Days 0-52, ~250 T. canis eggs on Day 0, all treatment groups, expected by the end of the study period
Excerpt: Efficacy of Monepantel Administered per os, i.e. by Mouth, to Dogs for the Treatment and Control of Toxocara canis.
Methods: A pool of dogs are to be preliminarily examined to ensure suitability for the example. Dogs must be within normal weight ranges for breed, in good health with no known history of serious disease and neither pregnant nor lactating. On Day-6, a fecal examination may be performed to confirm the absence of pre-existing infection by any nematode species. Dogs exposed to an anthelmintic within 30 days prior to Day-7 are to be excluded.
16 eligible dogs are to be weighed on Day-1 and randomly assigned to 1 of 4 groups by weight (1 control group and 3 treatment groups).
Dogs are to be housed indoors to help prevent naturally occurring parasitic worm infections. Dogs may be pair housed, if compatible, or individually housed until allocation to treatment groups on Day 0. Thereafter, the dogs are to be housed individually. Dogs are to be fed a standard commercially available dog food at the recommended rates and should be allowed access to potable water ad libitum.
Each dog in a treatment group (test groups 2-4) is to receive by mouth a liquid formulation of monepantel. The dosage is to be administered to the dogs on each of days 0-52 according to test groups, see TABLE 4.
Dogs in the control group are not to receive any anthelmintics or any other worm control treatment. […]

Toxocara canis [2] = assay: Efficacy of fenbendazole per os to dogs against Toxocara canis infections (fecal egg counts); conditions: oral liquid formulation, 0.5, 1.0 or 1.5 mg/kg daily Days 0-52 (at least treatment groups 2-4), ~250 T. canis eggs on Day 0, expected by the end of the study period
Excerpt: Efficacy of Fenbendazole Administered per os, i.e. by Mouth, to Dogs for the Treatment and Control of Toxocara canis Infections. Methods: A pool of dogs are to be preliminarily examined to ensure suitability for the example. Dogs must be within normal weight ranges for breed, in good health with no known history of serious disease and neither pregnant nor lactating. Between Day-6 and Day-3, a fecal examination may be performed to confirm the absence of pre-existing infection by any nematode species. Dogs exposed to an anthelmintic within 30 days prior to Day-7 are to be excluded. 20 eligible dogs are to be weighed on Day-2 or Day-1 and randomly assigned to 1 of 5 groups by weight (1 control group and 4 treatment groups). Dogs are to be housed indoors to help prevent naturally occurring parasitic worm infections. Dogs may be pair housed, if compatible, or individually housed until allocation to treatment groups on Day 0. Thereafter, the dogs are to be housed individually. Dogs are to be fed a standard commercially available dog food at the recommended rates and should be allowed access to potable water ad libitum. Each dog in a treatment group (test groups 2-5) is to receive by mouth a liquid formulation of fenbendazole. The dosage is to be administered to the dogs on each of days 0-52 according to test groups, see TABLE 5. [table] […]

Row | Structure (SMILES) | Percent reduction in fecal egg counts (Ancylostoma caninum) | efficacy (fecal egg count reduction) (Toxocara canis [1]) | efficacy (fecal egg count reduction) (Toxocara canis [2])
1 | C[C@](C#N)(COc1cc(C#N)ccc1C(F)(F)F)NC(=O)c1ccc(SC(F)(F)F)cc1 [Monepantel, N-[(2S)-2-cyano-1-[5-cyano-2-(trifluoromethyl)phenoxy]propan-2-yl]-4-(trifluoromethylsulfanyl)benzamide] | 100% | 100% | –
2 | COC(=O)Nc1nc2ccc(Sc3ccccc3)cc2[nH]1 [Fenbendazole, methyl N-(6-phenylsulfanyl-1H-benzimidazol-2-yl) carbamate] | – | – | 100%
